# “And” between values parts separate entries of the source, which are not always exact repeats. Identical values can stand only once.
# Test system: 786-0 complex spheroid viability
# Experiment: Anticancer human tumor 786-0 cell line growth inhibition;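 note: spheroids exposed to agents for seven days before readout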
# Details: for viability, T/C: stronger effect = lower value
# Summary of the method: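 Complex spheroids of tumor cells with HUVEC and human MSCs, exposed to iadademstat combined with other agents. Each agent tested in half-log steps from near clinical Cmax (else 10 microM top), DMSO ≤0.25%.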
# [1] = curve of first compound, second compound 0.1 µM
# [2] = curve of first compound, second compound 0.316 µM
# [3] = curve of first compound, second compound 1 µM
# [4] = curve of first compound, second compound 3.16 µM
# [5] = curve of first compound, second compound 10 µM
# [6] = second compound 0.1 µM, first compound 0.0316 µM
# [7] = second compound 0.1 µM, first compound 0.1 µM
# [8] = second compound 0.1 µM, first compound 0.316 µM
# [9] = second compound 0.1 µM, first compound 1 µM
# [10] = second compound 0.316 µM, first compound 0.0316 µM
# [11] = second compound 0.316 µM, first compound 0.1 µM
# [12] = second compound 0.316 µM, first compound 0.316 µM
# [13] = second compound 0.316 µM, first compound 1 µM
# [14] = second compound 1 µM, first compound 0.0316 µM
# [15] = second compound 1 µM, first compound 0.1 µM
# [16] = second compound 1 µM, first compound 0.316 µM
# [17] = second compound 1 µM, first compound 1 µM
# [18] = second compound 3.16 µM, first compound 0.0316 µM
# [19] = second compound 3.16 µM, first compound 0.1 µM
# [20] = second compound 3.16 µM, first compound 0.316 µM
# [21] = second compound 3.16 µM, first compound 1 µM
# [22] = second compound 10 µM, first compound 0.0316 µM
# [23] = second compound 10 µM, first compound 0.1 µM
# [24] = second compound 10 µM, first compound 0.316 µM
# [25] = second compound 10 µM, first compound 1 µM
structure (smiles),measurement,setting,value
CC1COCCN1c1cc(-c2ccnn2C)c2ccnc(-c3ccn[nH]3)c2n1 (stereo unspecified) + NC1CCC(NC2CC2c2ccccc2)CC1,IC50,[1],37.3 nM
same,IC50,[2],36.9 nM
same,IC50,[3],30.7 nM
same,IC50,[4],22.4 nM
same,IC50,[5],12.4 nM
same,"viability, T/C","second compound 0.1 µM, first compound 0.00316 µM",112%
same,"viability, T/C","second compound 0.1 µM, first compound 0.01 µM",110%
same,"viability, T/C",[6],55.5%
same,"viability, T/C",[7],16.3%
same,"viability, T/C",[8],8.21%
same,"viability, T/C",[9],10.2%
same,"viability, T/C","second compound 0.316 µM, first compound 0.00316 µM",123%
same,"viability, T/C","second compound 0.316 µM, first compound 0.01 µM",114%
same,"viability, T/C",[10],55.1%
same,"viability, T/C",[11],16.2%
same,"viability, T/C",[12],7.09%
same,"viability, T/C",[13],12.1%
same,"viability, T/C","second compound 1 µM, first compound 0.00316 µM",116%
same,"viability, T/C","second compound 1 µM, first compound 0.01 µM",104%
same,"viability, T/C",[14],48.3%
same,"viability, T/C",[15],15.1%
same,"viability, T/C",[16],5.97%
same,"viability, T/C",[17],11.4%
same,"viability, T/C","second compound 3.16 µM, first compound 0.00316 µM",107%
same,"viability, T/C","second compound 3.16 µM, first compound 0.01 µM",83.1%
same,"viability, T/C",[18],35.9%
same,"viability, T/C",[19],12.4%
same,"viability, T/C",[20],5.34%
same,"viability, T/C",[21],9.25%
same,"viability, T/C","second compound 10 µM, first compound 0.00316 µM",77.4%
same,"viability, T/C","second compound 10 µM, first compound 0.01 µM",57%
same,"viability, T/C",[22],19.2%
same,"viability, T/C",[23],5.5%
same,"viability, T/C",[24],3.62%
same,"viability, T/C",[25],12%
O=C(C=Cc1cccc(S(=O)(=O)Nc2ccccc2)c1)NO,"viability, T/C",compound 0.00949 µM,96.4% and 90.1%
same,"viability, T/C",compound 0.03 µM,94.9% and 96.3%
same,"viability, T/C",compound 0.0949 µM,98.5% and 102%
same,"viability, T/C",compound 0.3 µM,93.5% and 98.6%
same,"viability, T/C",compound 0.949 µM,48.6% and 73.1%
same,"viability, T/C",compound 3 µM,6.1% and 9.6%
same,IC50,curve of compound,915 nM and 1440 nM
Cn1ncnc1C1c2n[nH]c(=O)c3cc(F)cc(c23)NC1c1ccc(F)cc1 (stereo unspecified),"viability, T/C",compound 0.000316 µM,102% and 101%
same,"viability, T/C",compound 0.001 µM,108%
same,"viability, T/C",compound 0.00316 µM,98.2% and 97.5%
same,"viability, T/C",compound 0.01 µM,98.3% and 97.5%
same,"viability, T/C",compound 0.0316 µM,100% and 92.3%
same,"viability, T/C",compound 0.1 µM,97.7% and 89.8%
same,IC50,curve of compound,> 100 nM
Nc1ncn(C2CC(O)C(CO)S2)c(=O)n1 (stereo unspecified),"viability, T/C",compound 0.000949 µM,110% and 99.7%
same,"viability, T/C",compound 0.003 µM,109% and 112%
same,"viability, T/C",compound 0.00949 µM,117% and 112%
same,"viability, T/C",compound 0.03 µM,103% and 102%
same,"viability, T/C",compound 0.0949 µM,67.7% and 83.2%
same,"viability, T/C",compound 0.3 µM,30.5% and 47.9%
same,IC50,curve of compound,164 nM and 280 nM
O=C(c1cc(Cc2n[nH]c(=O)c3ccccc23)ccc1F)N1CCN(C(=O)C2CC2)CC1 + NC1CCC(NC2CC2c2ccccc2)CC1,IC50,[1],> 10000 nM
same,IC50,[2],> 10000 nM
same,IC50,[3],> 10000 nM
same,IC50,[4],> 10000 nM
same,IC50,[5],8150 nM
same,"viability, T/C",[6],114%
same,"viability, T/C",[7],119%
same,"viability, T/C",[8],111%
same,"viability, T/C",[9],101%
same,"viability, T/C","second compound 0.1 µM, first compound 3.16 µM",83.1%
same,"viability, T/C","second compound 0.1 µM, first compound 10 µM",71.4%
same,"viability, T/C",[10],119%
same,"viability, T/C",[11],112%
same,"viability, T/C",[12],115%
same,"viability, T/C",[13],104%
same,"viability, T/C","second compound 0.316 µM, first compound 3.16 µM",87.1%
same,"viability, T/C","second compound 0.316 µM, first compound 10 µM",72.6%
same,"viability, T/C",[14],115%
same,"viability, T/C",[15],113%
same,"viability, T/C",[16],104%
same,"viability, T/C",[17],92.9%
same,"viability, T/C","second compound 1 µM, first compound 3.16 µM",76.6%
same,"viability, T/C","second compound 1 µM, first compound 10 µM",62.3%
same,"viability, T/C",[18],99.3%
same,"viability, T/C",[19],99.3%
same,"viability, T/C",[20],100%
same,"viability, T/C",[21],91.8%
same,"viability, T/C","second compound 3.16 µM, first compound 3.16 µM",79.3%
same,"viability, T/C","second compound 3.16 µM, first compound 10 µM",57.3%
same,"viability, T/C",[22],79.8%
same,"viability, T/C",[23],82.7%
same,"viability, T/C",[24],88.4%
same,"viability, T/C",[25],81.7%
same,"viability, T/C","second compound 10 µM, first compound 3.16 µM",67.2%
same,"viability, T/C","second compound 10 µM, first compound 10 µM",46.3%
